Reference: patent US5191093A, “Process for preparing crystalline calcium pseudomonate” (Beecham Group p.l.c., priority 1990, dated 1993)
Read-outs that look alike come from different tables or passages of the source.

Assays:
Type in all cases: cell-based
K.aerogenes = assay: In vitro MIC against human bacteria, nutrient agar with 5% chocolated horse blood; settings: Klebsiella aerogenes; strain A; 18 hours at 37° C.
Method: (§1) The activity of the compounds of the Examples against various bacteria which are important in diseases of humans, was assayed in vitro using serial dilutions in nutrient agar with 5% chocolated horse blood.

S.agalactiae = assay: as above; settings: 18 hours at 37° C.
Method: as §1

Streptococcus Spp = assay: as above; settings: 18 hours at 37° C.
Method: as §1

S.pyogenes = assay: as above; settings: Streptococcus pyogenes, 18 h, 18 hours at 37° C.
Method: as §1

S.pneumoniae = assay: as above; settings: Streptococcus pneumoniae; strain CN33; 18 hours at 37° C.
Method: as §1

S.aureus = assay: as above; settings: Staphylococcus aureus, 18 h, 18 hours at 37° C.
Method: as §1

Strep.suis (group D) = assay: In vitro MIC against veterinary bacteria, Diagnostic Sensitivity Test Agar; settings: Streptococcus suis; strain SPS11; 18 hours at 37° C.
Method: (§2) The activity of the compounds of the Examples against various veterinarily important bacteria, was assayed in vitro using two-fold serial dilutions in Diagnostic Sensitivity Test Agar inoculated with 10^4 organisms.

Strep.uberis = assay: as above; settings: Streptococcus uberis; strain SPU1; 18 hours at 37° C.
Method: as §2

Moraxella Bovis = assay: as above; settings: 18 hours at 37° C.
Method: as §2

Past.multocida = assay: as above; settings: Pasteurella multocida; strain PA1; 18 hours at 37° C.
Method: as §2

Past.haemolytica = assay: as above; settings: Mannheimia haemolytica; strain PA5; 18 hours at 37° C.
Method: as §2

S.typhimurium = assay: as above; settings: Salmonella enterica, strain S18, 18 hours at 37° C.
Method: as §2

Strep.agalactiae = assay: as above; settings: Streptococcus agalactiae; strain SPA1; 18 hours at 37° C.
Method: as §2

Corynebacterium pyogenes = assay: as above; settings: Trueperella pyogenes; strain CY1; 18 hours at 37° C.
Method: as §2

Bord.bronchiseptica = assay: as above; settings: Bordetella bronchiseptica, 18 h, 18 hours at 37° C.
Method: as §2

S.dublin = assay: as above; settings: Salmonella enterica; strain S7; 18 hours at 37° C.
Method: as §2

E.coli = assay: as above; settings: Escherichia coli, 18 hours at 37° C.
Method: as §2

Strep.dysgalaciae = assay: as above; settings: strain SPD1; 18 hours at 37° C.
Method: as §2

[1] = system: Erysipelothrix rhusiopathiae; assay: as above; settings: NCTC8163, strain NCTC 8163, 18 hours at 37° C.
Method: as §2

B.subtilis = assay: as above; settings: Bacillus subtilis, ATCC6633; strain ATCC 6633; 18 hours at 37° C.
Method: as §2

Staph.aureus = assay: as above; settings: Staphylococcus aureus, 18 h, 18 hours at 37° C.
Method: as §2

M.pneumoniae = assay: In vitro MIC against Mycoplasma, Friis broth agarose; settings: Mycoplasmoides pneumoniae, ATCC15492, 144 h; strain ATCC 15492; 6 days at 37° C.
Method: (§3) The activity of the compounds of the Examples against various mycoplasmal organisms was assayed in vitro in Friis broth solidified with 0.9% agarose and inoculated with 10^3 to 10^5 C.F.U. The minimum inhibitory concentrations (MIC's) were determined after incubation for 6 days at 37° C. and are shown in Table 1.

M.bovigenitalium = assay: as above; settings: 144 h; strain ATCC 14173; 6 days at 37° C.
Method: as §3

M.hyorhinis = assay: as above; settings: Mesomycoplasma hyorhinis, 6 days at 37° C.
Method: as §3

M.bovis = assay: as above; settings: NCTC10131, 144 h
Method: as §3

M.hyosynoviae = assay: as above; settings: 144 h; strain ATCC 25591; 6 days at 37° C.
Method: as §3

M.gallisepticum = assay: as above; settings: Mycoplasmoides gallisepticum, 144 h; strain S6; 6 days at 37° C.
Method: as §3

M.hyopneumoniae = assay: as above
Method: as §3

Question: `CC(=CC(=O)OCCCCCCCCC(=O)O)CC1OCC(CC2OC2C(C)C(C)O)C(O)C1O` (centres unmarked) [Calcium Pseudomonate dihydrate, Calcium Pseudomonate Dihydrate] was tested. Which MIC (K.aerogenes) did it give?
Answer: Its MIC is over 128 µg/mL.

Question: And the MIC (S.agalactiae; Streptococcus agalactiae, strain 2788-B, read-out: MIC)?
Answer: The MIC was 0.5 µg/mL.

Question: And the MIC (S.agalactiae; strain 2798B)?
Answer: The MIC was 0.5 µg/mL.

Question: What about the MIC (S.agalactiae; strain 2866B) of the same compound?
Answer: Its MIC is 0.5 µg/mL.

Question: And the MIC (Streptococcus Spp; Streptococcus, S.spp. strain 64/848-C, read-out: MIC)?
Answer: Its MIC is 0.5 µg/mL.

Question: What about the MIC (Streptococcus Spp; strain 2373C) of the same compound?
Answer: The MIC was 0.5 µg/mL.

Question: What about the MIC (Streptococcus Spp; strain 2465C) of the same compound?
Answer: Its MIC is 0.5 µg/mL.

Question: What about the MIC (Streptococcus Spp; strain 2761C) of the same compound?
Answer: The MIC was 0.5 µg/mL.

Question: And the MIC (S.pyogenes; strain 1947A)?
Answer: Its MIC is 0.13 µg/mL.

Question: And the MIC (S.pyogenes; strain 1953-A)?
Answer: The MIC was 0.13 µg/mL.

Question: And the MIC (S.pyogenes; strain BcA)?
Answer: The MIC was 0.5 µg/mL.

Question: What about the MIC (S.pyogenes; strain CN10A) of the same compound?
Answer: The MIC was 0.03 µg/mL.

Question: What about the MIC (S.pneumoniae) of the same compound?
Answer: The MIC was 0.03 µg/mL.

Question: What about the MIC (S.aureus; strain Oxford, read-out: MIC) of the same compound?
Answer: Its MIC is 0.13 µg/mL.

Question: And the MIC (S.aureus; strain Russell, read-out: MIC)?
Answer: Its MIC is 0.25 µg/mL.

Question: And the MIC (S.aureus; strain T2P-, read-out: MIC)?
Answer: Its MIC is 0.25 µg/mL.

Question: What about the MIC (S.aureus; strain T22P-) of the same compound?
Answer: Its MIC is 0.25 µg/mL.

Question: What about the MIC (S.aureus; strain T63P+) of the same compound?
Answer: The MIC was 0.25 µg/mL.

Question: And the MIC (S.aureus; strain T67P+)?
Answer: Its MIC is 0.5 µg/mL.

Question: What about the MIC (S.aureus; strain V331, read-out: MIC) of the same compound?
Answer: The MIC was 0.5 µg/mL.

Question: And the MIC (S.aureus; strain V352, read-out: MIC)?
Answer: Its MIC is 0.5 µg/mL.

Question: What about the MIC (S.aureus; strain W2827, read-out: MIC) of the same compound?
Answer: Its MIC is 0.25 µg/mL.

Question: And the MIC (Strep.suis (group D))?
Answer: The MIC was 0.63 µg/mL.

Question: What about the MIC (Strep.uberis) of the same compound?
Answer: Its MIC is 0.07 µg/mL.

Question: What about the MIC (Moraxella Bovis) of the same compound?
Answer: The MIC was 0.31 µg/mL.

Question: And the MIC (Past.multocida)?
Answer: The MIC was 0.07 µg/mL.

Question: And the MIC (Past.haemolytica)?
Answer: Its MIC is 2.5 µg/mL.

Question: And the MIC (S.typhimurium)?
Answer: The MIC was 80 µg/mL.

Question: What about the MIC (Strep.agalactiae) of the same compound?
Answer: The MIC was 0.16 µg/mL.

Question: What about the MIC (Corynebacterium pyogenes) of the same compound?
Answer: Its MIC is over 80 µg/mL.

Question: And the MIC (Bord.bronchiseptica; strain B08)?
Answer: The MIC was 5 µg/mL.

Question: And the MIC (Bord.bronchiseptica; strain B09)?
Answer: Its MIC is 1.3 µg/mL.

Question: And the MIC (S.dublin)?
Answer: Its MIC is 80 µg/mL.

Question: What about the MIC (E.coli; NCTC10418, strain NCTC 10418) of the same compound?
Answer: Its MIC is 80 µg/mL.

Question: And the MIC (E.coli; strain E1)?
Answer: Its MIC is 80 µg/mL.

Question: And the MIC (Strep.dysgalaciae)?
Answer: Its MIC is 0.16 µg/mL.

Question: And the MIC [1]?
Answer: Its MIC is 20 µg/mL.

Question: What about the MIC (B.subtilis) of the same compound?
Answer: The MIC was 0.07 µg/mL.

Question: What about the MIC (Staph.aureus; strain 152 (pen.sens.)) of the same compound?
Answer: Its MIC is 0.16 µg/mL.

Question: And the MIC (Staph.aureus; strain (Mexi))?
Answer: Its MIC is 0.16 µg/mL.

Question: What about the MIC (Staph.aureus; strain B4 (pen.resistant)) of the same compound?
Answer: The MIC was 0.16 µg/mL.

Question: And the MIC (Staph.aureus; strain M60)?
Answer: Its MIC is 0.16 µg/mL.

Question: And the MIC (Staph.aureus; strain Oxford)?
Answer: Its MIC is under 0.1 µg/mL.

Question: And the MIC (M.pneumoniae)?
Answer: Its MIC is 5 µg/mL.

Question: What about the MIC (M.bovigenitalium) of the same compound?
Answer: Its MIC is 0.1 µg/mL.

Question: And the MIC (M.hyorhinis; ATCC23234, 144 h, strain ATCC 23234)?
Answer: The MIC was 1 µg/mL.

Question: What about the MIC (M.hyorhinis; ATCC25021, 144 h, strain ATCC 25021) of the same compound?
Answer: Its MIC is 1 µg/mL.

Question: And the MIC (M.bovis)?
Answer: The MIC was 0.025 µg/mL.

Question: What about the MIC (M.hyosynoviae) of the same compound?
Answer: The MIC was 0.5 µg/mL.

Question: And the MIC (M.gallisepticum)?
Answer: The MIC was over 10 µg/mL.

Question: And the MIC (M.hyopneumoniae; Mesomycoplasma hyopneumoniae, 144 h, mean of M.hyopneumoniae strains, read-out: MIC, MEAN)?
Answer: Its MIC is 2.5 µg/mL.

Question: And the MIC (M.hyopneumoniae; Mesomycoplasma hyopneumoniae, 144 h, strain JF 435, 6 days at 37° C., read-out: MIC)?
Answer: The MIC was 2.5 µg/mL.

Question: What about the MIC (M.hyopneumoniae; Mesomycoplasma hyopneumoniae, NCTC10110, 144 h, strain NCTC 10110, 6 days at 37° C., read-out: MIC) of the same compound?
Answer: Its MIC is 2.5 µg/mL.

Question: And the MIC (M.hyopneumoniae; strain ATTCC 25095, 6 days at 37° C.)?
Answer: Its MIC is 2.5 µg/mL.

Question: What about the MIC (M.hyopneumoniae; strain HK (2), 6 days at 37° C.) of the same compound?
Answer: Its MIC is 2.5 µg/mL.

Question: What about the MIC (M.hyopneumoniae; strain J2206/183b, 6 days at 37° C.) of the same compound?
Answer: The MIC was 2.5 µg/mL.

Question: And the MIC (M.hyopneumoniae; strain LABER, 6 days at 37° C.)?
Answer: The MIC was 2.5 µg/mL.

Question: And the MIC (M.hyopneumoniae; strain MS16, 6 days at 37° C.)?
Answer: Its MIC is 2.5 µg/mL.

Question: And the MIC (M.hyopneumoniae; strain PW/C/210, 6 days at 37° C.)?
Answer: The MIC was 2.5 µg/mL.

Question: What about the MIC (M.hyopneumoniae; strain Str 11, 6 days at 37° C.) of the same compound?
Answer: Its MIC is 2.5 µg/mL.

Question: And the MIC (M.hyopneumoniae; strain TAM 6N, 6 days at 37° C.)?
Answer: The MIC was 2.5 µg/mL.

Question: And the MIC (M.hyopneumoniae; strain UCD1, 6 days at 37° C.)?
Answer: Its MIC is 2.5 µg/mL.
